Read-outs that look alike come from different tables or passages of the source.
Key:
14-3-3σ/ERα [1] = molecular target: T1, 14-3-3σ/ERα (Homo sapiens, UniProt P03372+P31947); test: Mass spectrometry dose response, compound binding to 14-3-3σ in the presence of ERα phosphopeptide; details: 100 nM compound, 100 nM 14-3-3σ, ERα-peptide 2 µM
T1 construct: The 14-3-3 σ isoform (full-length for mass spectrometry and fluorescence anisotropy assays, ΔC for crystallography); made in house; host or cells: E. coli Rosetta 2(DE3)pLysS, pPROEX HTb vector
Summary of the method: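 Covalent labeling of Cys38 on 14-3-3σ was tracked by LC-MS on a Waters Acquity UPLC/Xevo G2-XS Q-Tof, with samples desalted on a Protein BEH-C4 column. Full-length wild type 14-3-3σ (100 nM) plus ERα phosphopeptide was mixed with compound in 10 mM TRIS, pH 8.0, at 50 μl per well. Percent bound was measured at several time points.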

14-3-3σ = molecular target: T2, 14-3-3σ (Homo sapiens, UniProt P31947); test: Mass spectrometry dose response, compound binding to 14-3-3σ in the absence of peptide (apo); details: 100 nM compound, 100 nM 14-3-3σ
T2 construct: The 14-3-3 σ isoform (full-length for mass spectrometry and fluorescence anisotropy assays, ΔC for crystallography); made in house; host or cells: E. coli Rosetta 2(DE3)pLysS, pPROEX HTb vector
T2 sequence (P31947 1-248): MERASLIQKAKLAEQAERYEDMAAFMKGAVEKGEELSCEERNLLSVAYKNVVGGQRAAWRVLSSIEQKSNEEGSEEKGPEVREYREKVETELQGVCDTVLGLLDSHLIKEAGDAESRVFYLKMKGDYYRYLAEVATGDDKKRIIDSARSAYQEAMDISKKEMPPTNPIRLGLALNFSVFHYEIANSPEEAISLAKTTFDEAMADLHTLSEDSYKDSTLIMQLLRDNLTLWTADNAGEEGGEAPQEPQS
Summary of the method: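 Covalent binding of compounds to Cys38 of full-length wild type human 14-3-3σ (100 nM) was measured by LC-MS without peptide present. Compounds from 50 mM DMSO stocks were serially diluted 3-fold and 1000 nl transferred to plates in TRIS buffer (10 mM, pH 8.0), 50 μl per well. Samples were desalted on a BEH-C4 column and analysed on a Xevo G2-XS Q-Tof at several time points.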

14-3-3σ/C-RAF [2] = molecular target: T3, 14-3-3σ/C-RAF (Homo sapiens, UniProt P31947); test: Mass spectrometry dose response, compound binding to 14-3-3σ in the presence of C-RAF phosphopeptide; details: 100 nM compound, 100 nM 14-3-3σ, C-RAF peptide 18 µM
T3 construct: The 14-3-3 σ isoform (full-length for mass spectrometry and fluorescence anisotropy assays, ΔC for crystallography); made in house; host or cells: E. coli Rosetta 2(DE3)pLysS, pPROEX HTb vector
T3 sequence (P31947 1-248): T2 sequence (P31947 1-248)
Summary of the method: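 Covalent binding of compounds to the native Cys38 of 14-3-3σ was monitored by LC-MS on a Waters Acquity UPLC/Xevo G2-XS Q-Tof, with samples desalted on a BEH-C4 column. Full-length wild type 14-3-3σ (100 nM) with C-RAF peptide in TRIS buffer (10 mM, pH 8.0) was incubated with compound dose series at room temperature.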

14-3-3σ/ERα [3] = molecular target: T1, 14-3-3σ/ERα; test: Fluorescence anisotropy compound titration, FAM-labeled ERα peptide; type: binding; details: for EC50: 10 nM ERα-FAM labeled peptide, 1 µM 14-3-3σ, overnight incubation (24 h)
Summary of the method: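 Fluorescence anisotropy compound titration measuring stabilization of the 14-3-3σ/ERα interaction: compounds were titrated in a 2-fold dilution series (starting at 500 or 1000 µM) into a mix of 10 nM fluorescein-labeled ERα peptide and 1 µM 14-3-3σ (about EC25 of the complex) in HEPES buffer with 1% DMSO, read after overnight incubation at room temperature; EC50 from 4PL fitting.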

14-3-3σ/ERα [4] = molecular target: T1, 14-3-3σ/ERα; test: as above; details: labeling in MS assay, peptide binding in FA assay
14-3-3σ/C-RAF [5] = molecular target: T3, 14-3-3σ/C-RAF; test: Fluorescence anisotropy compound titration, FAM-labeled C-RAF peptide; type: binding; details: for stabilization of 14-3-3σ/C-RAF (in words): MS and FA assays, abstract: up to 150 μM compound
14-3-3σ/C-RAF [6] = molecular target: T3, 14-3-3σ/C-RAF; test: as above; type: binding; details: 10 nM C-RAF-FAM labeled peptide, 5 µM 14-3-3σ, overnight incubation; read-out: EC50 value C-RAF (FA compound titration)
Summary of the method: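 A fluorescence anisotropy compound titration measured how compounds stabilize binding of 14-3-3σ to a fluorescein-labeled C-RAF peptide. Compounds were diluted 2-fold, from 500 or 1000 µM, into 10 nM labeled peptide with 5 µM 14-3-3σ, roughly its EC25, in HEPES buffer with 1% DMSO. Plates were read after overnight incubation at room temperature. EC50 values came from 4PL fits over three independent experiments.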

14-3-3σ/ERα [7] = molecular target: T1, 14-3-3σ/ERα; test: Fluorescence anisotropy protein titration, FAM-labeled ERα peptide; type: binding; details: 10 nM FAM-ERα peptide; for X Fold stabilization (100 µM compound) of 14-3-3σ/ERα: versus DMSO reference; for Kd: 100 µM compound, overnight incubation
Experimental: To evaluate compound-mediated stabilization of the 14-3-3σ/ERα complex directly, FA protein titrations were performed at a saturating concentration of compound. FA protein titrations allowed the quantification of the cooperative effect by comparing the apparent dissociation constants (appKD) of the binary and ternary complexes. 14-3-3σ was titrated into 10 nM FAM-labeled ERα peptide in the presence of DMSO or 100 μM of the compounds (Table S4). […]
diluted in buffer (10 mM HEPES, pH 7.5, 150 mM NaCl, 0.1% Tween20, 1 mg/mL Bovine Serum Albumin (BSA; Sigma-Aldrich). Final DMSO in the assay was always 1%. […]
Protein titrations were made by titrating 14-3-3σ in a 2-fold dilution series (starting at 300 µM) to a mix of fluorescein-labeled peptide (10 nM) and DMSO or compound (100 µM). Fluorescence anisotropy measurements were performed after overnight incubation at room temperature. […]
Wells containing only FAM-peptide were used to set as G-factor at 35 mP. Data reported are at endpoint. EC50 and apparent Kd values were obtained from fitting the data with a four-parameter logistic model (4PL) in GraphPad Prism 7 for Windows. Data was obtained and averaged based on either three (compound titrations) or two (protein titrations) independent experiments.

[8] = EC50 value ERα (FA compound titration)
[9] = read-out: EC50 value ERα (FA compound titration)

Row | SMILES | Percentage (%) bound of compound to 14-3-3σ, ERα 1h (14-3-3σ/ERα [1]) | Percentage (%) bound of compound to 14-3-3σ, ERα 8h (14-3-3σ/ERα [1]) | Percentage (%) bound of compound to 14-3-3σ, ERα 16h (14-3-3σ/ERα [1]) | Percentage (%) bound of compound to 14-3-3σ, ERα 24h (14-3-3σ/ERα [1]) | Percentage (%) bound of compound to 14-3-3σ, APO 1h (14-3-3σ) | Percentage (%) bound of compound to 14-3-3σ, APO 8h (14-3-3σ) | Percentage (%) bound of compound to 14-3-3σ, APO 16h (14-3-3σ) | Percentage (%) bound of compound to 14-3-3σ, APO 24h (14-3-3σ) | Percentage (%) bound of compound to 14-3-3σ, CRAF 1h (14-3-3σ/C-RAF [2]) | Percentage (%) bound of compound to 14-3-3σ, CRAF 8h (14-3-3σ/C-RAF [2]) | Percentage (%) bound of compound to 14-3-3σ, CRAF 24h (14-3-3σ/C-RAF [2]; 24h) | Percentage (%) bound of compound to 14-3-3σ, CRAF 24h (14-3-3σ/C-RAF [2]; head prints 24h) | EC50 (14-3-3σ/ERα [3]; [9]) | EC50 (14-3-3σ/C-RAF [6]) | X Fold stabilization (100 µM compound) of 14-3-3σ/ERα (14-3-3σ/ERα [7]) | Kd (14-3-3σ/ERα [7]) | other results
1 | C=CS(=O)(=O)NCC1CCN(C(=O)C2(Nc3ccc(Cl)cc3)CCOCC2)CC1 [compound 155] | 0.6% | 1.5% | 5.9% | 14.1% | 0% | 0.7% | 4.6% | 31.4% | 0% | 0% | 1.0% | 0% |  |  |  |  | EC50 (14-3-3σ/ERα [3]; [8]): > 150 µM; activity in MS and FA assays (in words) (14-3-3σ/ERα [4]): inactive
2 | CC(C)(Nc1ccccc1)C(=O)N1CCC(CNC(=O)CCl)CC1 [compound 85] | 0.9% | 1.2% | 1.5% | 1.5% | 0% | 0% | 0% | 0% | 0.9% | 1.2% | 1.5% | 1.5% | > 150 µM |  |  |  | activity in MS and FA assays (in words) (14-3-3σ/ERα [4]): inactive
3 | O=C(CCl)NCC1CCN(C(=O)C2(Nc3ccc(Cl)cc3)CCCC2)CC1 [compound 118] | 11.2% | 24.1% | 60.1% | 96.6% | 0% | 0% | 0.8% | 13.0% | 2.9% | 3.4% | 23.7% | 11.5% |  |  |  |  | EC50 (14-3-3σ/ERα [3]; [8]): 5 ± 0.4 µM; selectivity for ERα (over C-RAF, FA EC50) (14-3-3σ/ERα [3]; FA compound titrations): greater than 30 fold; EC50 (14-3-3σ/C-RAF [5]; EC50 value C-RAF (FA compound titration), 10 nM C-RAF-FAM labeled peptide, 5 µM 14-3-3σ, overnight incubation): > 150 µM
4 | NC1CCC(Nc2ccc(Cl)cc2)(C(=O)N2CCC(CNC(=O)CCl)CC2)CC1 (centres unmarked) [compound 137] | 36.3% | 60.4% | 90.0% | 96.4% | 1.4% | 1.9% | 3.2% | 9.3% | 1.7% | 3.6% | 10.4% | 6.6% | 8 ± 1 µM | > 150 µM |  |  | stabilization of 14-3-3σ/C-RAF (in words) (14-3-3σ/C-RAF [5]): no stabilization
5 | O=C(CCl)NC1CC2(CCN(C(=O)C3(Nc4ccc(Cl)cc4)CCOCC3)CC2)C1 [compound 166] | 32.6% | 60.3% | 87.6% | 94.0% | 1.2% | 3.2% | 5.5% | 13.3% | 1.8% | 4.0% | 23.3% | 11.8% | 6 ± 0.3 µM | 77 ± 5 µM | 13 fold | 0.16 µM | 
6 | O=C(CCl)N1CCC2(CC1)CC(NC(=O)C1(Nc3ccc(Cl)cc3)CCOCC1)C2 [compound 163] | 42.3% | 80.4% | 96.6% | 99.8% | 5.6% | 11.2% | 22.6% | 40.5% | 6.0% | 13.4% | 49.6% | 27.1% | 4 ± 1 µM | 57 ± 5 µM | 18 fold | 0.077 µM | 
7 | O=C(CCl)NCC1CCN(C(=O)C2(Nc3ccc(Cl)cc3)CCNCC2)CC1 [compound 131] | 54.4% | 82.2% | 94.0% | 98.3% | 1.4% | 2.2% | 5.8% | 14.1% | 2.0% | 2.4% | 12.5% | 4.6% | 2 ± 0.3 µM | > 150 µM | 30 fold | 0.049 µM | stabilization of 14-3-3σ/C-RAF (in words) (14-3-3σ/C-RAF [5]): no stabilization
